Measured values published in article PMC10786919, “Design-rules for stapled peptides with in vivo activity and their application to Mdm2/X antagonists” (Nature Communications, 2024).
≈ marks a conversion by molar mass, not a printed value. Where two headings read alike, the source gives them in different places. Positions of bridges follow the written chain, without caps; N, C: chain ends. Non-standard residues stand in square brackets, D forms with d. Residues, ends and D or L forms follow the SMILES beside them. Lys(N3) = [N-]=[N+]=NCCCC[C@H](N)C(=O)O; R8 = C=CCCCCCC[C@@](C)(N)C(=O)O; Cba = N[C@@H](CC1CCC1)C(=O)O; S5 = C=CCCC[C@](C)(N)C(=O)O; βAla = NCCC(=O)O

Tests used:
[1] = Lactate dehydrogenase (LDH) release assay; format: cell-based
How it was run: (§1)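 Read-out was lactate dehydrogenase release, reflecting loss of membrane integrity, in reporter-engineered HCT116 cells (p53-responsive β-lactamase) seeded at 8000 cells per well. Final DMSO was 0.5%, and reported values are geometric means from three or more biological repeats.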

HCT116 cells = test: Lactate dehydrogenase (LDH) release assay; format: cell-based
How it was run: as §1

[2] = Solubility assay (kinetic solubility, PBS pH 7); format: physicochemical; conditions: for solubility kinetic: read-out: Solubility
How it was run: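 Next, measure peak areas of sample and standard. Finally, multiply their ratio by the standard concentration to obtain solubility (µM).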

[3] = tested on: Jump-In T-REx CHO-K1 BLA cells; test: cells; format: cell-based; conditions: for EC50: read-out: TETCHO: Counterscreen EC50
[4] = tested on: cells transiently transfected with the NanoLuc-HaloTag vector; test: Nanoclick permeability assay; conditions: 4Hr
How it was run: (§2)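 Azido-peptide permeability was read as loss of NanoBRET signal (donor 450 nm, acceptor 610 nm) after adding NanoBret618-azide at 10 μM final.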

in vitro = conditions: Nanoclick permeability assay EC50
How it was run: as §2

[5] = tested on: p53 responsive β-lactamase reporter in HCT116 cells; test: cells; format: cell-based
How it was run: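 Read-out used the ToxBLAzer Dual Screen for β-lactamase driven by a stably integrated p53-responsive reporter. Assay: 8000 HCT116 cells per well at 0.5% final DMSO. Reported numbers are geometric means over a minimum of three biological replicates.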

EPSA = format: physicochemical
[6] = Experimental LogD (partition coefficient); conditions: for logD: not stated, Partition Coeff LogD
human Mdm2 1–125 = biological target: T1, human Mdm2 1–125 (Homo sapiens, UniProt Q00987); test: Mdm2 binding by competitive fluorescence anisotropy assay (FP binding); conditions: read-out: FP binding assay KD
T1 construct: GST (N); His6 (internal); TEV cleavage site (ENLYFQG) (internal); made in house; host or cells: BL21 (DE3) Rosetta T1R Escherichia coli
T1 sequence (Q00987 with tags, fused parts or gaps): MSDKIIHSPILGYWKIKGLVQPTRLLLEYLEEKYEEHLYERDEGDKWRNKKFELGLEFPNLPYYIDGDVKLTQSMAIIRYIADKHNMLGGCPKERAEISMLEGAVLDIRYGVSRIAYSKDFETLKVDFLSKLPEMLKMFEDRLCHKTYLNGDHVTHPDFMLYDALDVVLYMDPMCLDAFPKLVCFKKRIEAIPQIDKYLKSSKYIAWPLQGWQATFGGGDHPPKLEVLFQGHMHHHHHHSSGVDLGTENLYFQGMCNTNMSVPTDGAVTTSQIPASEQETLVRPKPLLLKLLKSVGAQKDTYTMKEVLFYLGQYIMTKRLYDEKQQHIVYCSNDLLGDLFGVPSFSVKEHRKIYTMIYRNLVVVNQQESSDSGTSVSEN
From the text: The TEV (tobacco etch virus) cleavage site was changed from ENLYFQS to ENLYFQG to give a fusion protein with the following sequence:
[P] is the protein concentration (Mdm2), [L] is the labeled peptide concentration, r is the anisotropy measured, r0 is the anisotropy of the free peptide, rb is the anisotropy of the Mdm2–FAM-labeled peptide complex, Kd is the dissociation constant, [L]t is the total FAM labeled peptide concentration, and [P]t is the total Mdm2 concentration. […] This value was then used to determine apparent Kd values of the respective competing ligands in subsequent competition assays in fluorescence anisotropy experiments.
The competing molecules were then titrated against the complex of the FAM-labeled peptide and protein. Apparent Kd values were determined by fitting the experimental data to equations shown below:2 r=ro+(rb−ro)×2(d^2−3e)cos(θ/3)−9/3Kd1+2(d^2−3e)cos(θ/3)−d 3 d=Kd1+Kd2+[L]st+[L]t−Pt 4 e=Lt−PtKd1+Lst+PtKd2+Kd1Kd2 5 f=−Kd1Kd2[P]t 6 θ=arcos−2d^3+9de−27f/2(d^2−3e)^3
[L]st and [L]t denote labeled ligand and total unlabeled ligand input concentrations, respectively. Kd2 is the dissociation constant of the interaction between the unlabeled ligand and the protein. In all competition experiments, it is assumed that [P]t > [L]st, otherwise considerable amounts of free labeled ligand would always be present and would interfere with measurements. […] The FAM-labeled peptide was dissolved in dimethyl sulfoxide (DMSO) at 1 mM and diluted into experimental buffer. Readings were carried out with an Envision Multilabel Reader (PerkinElmer). […] Curve-fitting was carried out using Prism 4.0 (GraphPad). […] Negative control titrations of the ligands under investigation were also carried out with the fluorescently labeled peptide (in the absence of Mdm2) to ensure no interactions were occurring between the ligands and the FAM-labeled peptide. […] Measurements were taken a minimum of three times (biological replicates) and values are reported as geometric means of the replicates.

Ca Ski cell line = conditions: Ca Ski
How it was run: (§3)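 Compound dilution series (10 points, 3-fold, 10 mM top stock in DMSO) tested on overnight-plated Ca Ski cells in RPMI1640/10% FBS and on blasticidin-selected p53RE-bla HCT-116 cells in McCoy's 5A; read-out was CellTiter-Glo 2.0 luminescence after room-temperature equilibration.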

[7] = tested on: CellSensor p53RE-bla HCT-116 Cell Line; conditions: read-out: Proliferation EC50 HCT116 (On-target); HCT116
How it was run: as §3

[8] = pH 7, aqueous buffer, kinetic from dmso stock, pH 7, PBS
[9] = 0% FBS 4Hr, read-out: p53 reporter assay: EC50
[10] = 10% FBS 4Hr, read-out: p53 reporter assay: EC50
[11] = 10% FBS 16Hr, read-out: p53 reporter assay: EC50

| SMILES | EC50 ([1]; LDH: Cytotoxicity assay: EC50) [µM] | EC50 (HCT116 cells) [µM] | solubility kinetic [2, 8] [µM] | TETCHO: Counterscreen % Effect ([3]; 0% FBS 4Hr) [%] | EC50 ([3]; 0% FBS 4Hr) [µM] | TETCHO: Counterscreen % Effect ([3]; 10% FBS 4Hr) [%] | EC50 ([3]; 10% FBS 4Hr) [µM] | TETCHO: Counterscreen % Effect ([3]; 10% FBS 16Hr) [%] | EC50 ([3]; 10% FBS 16Hr) [µM] | Nanoclick permeability assay % Effect [4] [%] | cell entry EC50 (in vitro) [µM] | p53 reporter assay: % Effect ([5]; 0% FBS 4Hr) [%] | EC50 [5, 9] [µM] | p53 reporter assay: % Effect ([5]; 10% FBS 4Hr) [%] | EC50 [5, 10] [µM] | p53 reporter assay: % Effect ([5]; 10% FBS 16Hr) [%] | EC50 [5, 11] [µM] | logD [6] | Kd (human Mdm2 1–125) [µM] | TETCHO: Counterscreen % Effect ([3]; 0% FBS 16Hr) [%] | also measured |
| --- | --- | --- | --- | --- | --- | --- | --- | --- | --- | --- | --- | --- | --- | --- | --- | --- | --- | --- | --- | --- | --- |
| CC(=O)N[C@H](C(=O)N[C@@H](CO)C(=O)N[C@@H](Cc1ccccc1)C(=O)N[C@]1(C)CCCCCCC=CCCC[C@@](C)(C(N)=O)NC(=O)[C@H](CC(C)C)NC(=O)[C@H](CC(C)C)NC(=O)[C@H](C)NC(=O)[C@H](Cc2c[nH]c3ccccc23)NC(=O)[C@H](Cc2ccc(O)cc2)NC(=O)[C@H](CCC(=O)O)NC1=O)[C@@H](C)O [MP-090] | > 50.7 | 50.5 | 77 (≈ 113 µg/mL) | 137.4 | 21.2 | 106.1 | 31.5 | 108.5 | 32.9 | 42.09 | > 10 | 110.7 | 6.5 | 88.51 | 26.2 | 4.432 | > 50.4 | 2.69 | – | – | EPSA (EPSA; EPSA): 201 A^2 |
| CC(=O)N[C@@H](CCCCN)C(=O)NCCCCCC(=O)N[C@H](C(=O)N[C@@H](CO)C(=O)N[C@@H](Cc1ccccc1)C(=O)N[C@]1(C)CCCCCCC=CCCC[C@@](C)(C(N)=O)NC(=O)[C@H](CC(C)C)NC(=O)[C@H](CC(C)C)NC(=O)[C@H](C)NC(=O)[C@H](Cc2c[nH]c3ccccc23)NC(=O)[C@H](Cc2ccc(O)cc2)NC(=O)[C@H](CCC(=O)O)NC1=O)[C@@H](C)O [MP-716] | > 50.7 | – | – | 43.21 | > 50.4 | 45.82 | > 50.4 | 13.83 | > 50.4 | 9.756 | > 10 | 93.75 | 14.1 | 161.5 | 15.9 | 18.31 | > 50.4 | – | 0.011 | – | Solubility ([2]; pH 7, PBS): Poorly Behaved; Partition Coeff LogD [6]: Poorly Behaved |
| CC(=O)N[C@@H](CCCCN=[N+]=[N-])C(=O)NCCC(=O)N[C@@H](CC(C)C)C(=O)N[C@H](C(=O)N[C@@H](Cc1ccccc1)C(=O)N[C@]1(C)CCCCCCC=CCCC[C@@](C)(C(=O)N[C@@H](CCC(=O)O)C(=O)N[C@@H](C)C(=O)N[C@@H](C)C(=O)N[C@@H](C)C(=O)N[C@@H](C)C(=O)N[C@H](C)C(N)=O)NC(=O)[C@H](CC2CCC2)NC(=O)[C@H](CCC(N)=O)NC(=O)[C@H](C)NC(=O)[C@H](Cc2c[nH]c3ccccc23)NC(=O)[C@H](Cc2ccc(O)cc2)NC(=O)[C@H](CCC(=O)O)NC1=O)[C@@H](C)O [MP-834, Ac-K(N3)-(betaAla)-LTF-(R8)-EYWAQ-(Cba)-(S5)-EAAAA-(D-Ala)-NH2] (Ac-[Lys(N3)][βAla]LTF[R8]EYWAQ[Cba][S5]EAAAA[dA]-NH2; staple 6-13) | – | – | – | -4.911 | – | – | – | -13.19 | – | 121.4 | – | – | – | – | – | – | – | – | – | -7.249 | LDH: Cytotoxicity assay % Effect (HCT116 cells; 0% FBS 4Hr): 6.58%; LDH: Cytotoxicity assay % Effect (HCT116 cells; 10% FBS 16Hr): 9.756%; solubility kinetic [2]: 167 µM (≈ 372 µg/mL); Proliferation % inhibition at 50 µM Ca Ski (Ca Ski cell line; 50 µM): -3.2%; EC50 (Ca Ski cell line; read-out: Proliferation EC50 Ca Ski (Off-target)): > 49.8 µM; EC50 [7]: 1.4 µM; p53 reporter assay % Effect ([5]; 0% FBS 4Hr): 103.2%; p53 reporter assay % Effect ([5]; 10% FBS 16Hr): 95.7%; EC50 ([5]; read-out: Cell EC50 (4 hr, 0% FBS), p53 reporter assay, 4 hr, 0% FBS): 1 µM; EC50 ([5]; read-out: Cell EC50 (16 hr, 10% FBS), p53 reporter assay, 16 hr, 10% FBS): 3.4 µM |
| CC(C)C[C@H](NC(=O)CCNC(=O)[C@H](CCCCN=[N+]=[N-])NC(=O)CNC(=O)[C@H](CC(=O)O)NC(=O)[C@H](CC(C)C)NC(=O)[C@H](CCCCN)NC(=O)[C@@H](NC(=O)[C@H](CCCNC(=N)N)NC(=O)[C@H](CCCCN)NC(=O)[C@H](C)NC(=O)[C@H](C)NC(=O)[C@@H]1CCCN1)C(C)C)C(=O)N[C@H](C(=O)N[C@@H](Cc1ccccc1)C(=O)N[C@]1(C)CCCCCCC=CCCC[C@@](C)(C(=O)N[C@@H](CO)C(=O)N[C@@H](C)C(=O)N[C@@H](C)C(N)=O)NC(=O)[C@H](CC2CCC2)NC(=O)[C@H](CCC(N)=O)NC(=O)[C@H](C)NC(=O)[C@H](Cc2c[nH]c3ccccc23)NC(=O)[C@H](Cc2ccc(O)cc2)NC(=O)[C@H](CCC(=O)O)NC1=O)[C@@H](C)O [MP-879] (H-PAAKRVKLDG[Lys(N3)][βAla]LTF[R8]EYWAQ[Cba][S5]SAA-NH2; staple 16-23) | – | – | 162 (≈ 480 µg/mL) | 42.86 | 35.8 | – | – | – | – | 134.8 | 0.555 | – | – | – | – | – | – | 2.38 | 0.0386 | 28.78 | EC50 ([1]; LDH: Cytotoxicity assay EC50): > 50 µM; EC50 ([3]; 0% FBS 16Hr): > 50 µM; EC50 ([5]; 0% FBS 4Hr, read-out: p53 reporter assay EC50): 2.4 µM; EC50 ([5]; 0% FBS 16Hr, read-out: p53 reporter assay EC50): 1.14 µM |
| CC(=O)N[C@@H](CCCCN)C(=O)NCCCCCC(=O)N[C@H](C(=O)N[C@@H](CO)C(=O)N[C@@H](Cc1ccccc1)C(=O)N[C@]1(C)CCCCCCC=CCCC[C@@](C)(C(=O)N[C@@H](CCC(=O)O)C(=O)N[C@@H](CC(N)=O)C(=O)N[C@@H](Cc2ccccc2)C(N)=O)NC(=O)[C@H](CC(C)C)NC(=O)[C@H](CC(C)C)NC(=O)[C@H](C)NC(=O)[C@H](Cc2c[nH]c3ccccc23)NC(=O)[C@H](Cc2ccc(O)cc2)NC(=O)[C@H](CCC(=O)O)NC1=O)[C@@H](C)O [MP-82094] | – | 50.5 | – | 52.98 | 45.8 | 49.08 | 20 | 82.5 | 7.15 | 69.87 | – | 109.5 | 1.55 | 125.5 | 3.92 | 78.69 | 16.1 | – | – | – | EPSA (EPSA): Poorly Behaved |
